Source: patent publication US10869848B2 (priority 2014, dated 2020)

How the values were obtained:
[1] = Stability of carmustine solution in TBA or dehydrated ethanol; assay type: physicochemical; conditions: storage at room temperature
[2] = alcohol such as tertiary butanol; cited from earlier work
[3] = Visual solubility of carmustine in alcoholic solvents; assay type: physicochemical

O=NN(CCCl)C(=O)NCCCl [Carmustine, 1,3-bis (2-chloroethyl)-1-nitrosourea]
time solution is stable, TBA ([1]; solution in TBA): at least 24 hrs | time solution is stable, dehydrated ethanol ([1]; solution in dehydrated ethanol): at least 24 hrs | solubility in alcohol, dichloromethane and ether [2]: very soluble | precipitation on storage, TBA solution ([3]; TBA solution stored at about 2 to about 8° C.): Neither of the solutions showed any sign of precipitation | solubility in TBA ([3]; TBA, room temperature, visually determined): > 1 g per mL | precipitation on storage, dehydrated ethanol solution ([3]; dehydrated ethanol solution stored at about 2 to about 8° C.): Neither of the solutions showed any sign of precipitation | solubility in dehydrated ethanol ([3]; dehydrated ethanol, room temperature, visually determined): > 1 g per mL
